# Source: paper PMC6409085, “Three odorant-binding proteins are involved in the behavioral response of Sogatella furcifera to rice plant volatiles” (PeerJ, 2019)
# “And” between values parts separate entries of the source, which are not always exact repeats. Equal entries are not always repeated.
# What was measured:
# SfurOBP1 = SfurOBP1 (Sogatella furcifera, UniProt V5T8N5); assay: biochemical; format: binding; conditions: for Fluorescence competitive binding assay, fluorescence intensity: OBP1, three replicate columns
# Chain of SfurOBP1 (V5T8N5 entry or part of it): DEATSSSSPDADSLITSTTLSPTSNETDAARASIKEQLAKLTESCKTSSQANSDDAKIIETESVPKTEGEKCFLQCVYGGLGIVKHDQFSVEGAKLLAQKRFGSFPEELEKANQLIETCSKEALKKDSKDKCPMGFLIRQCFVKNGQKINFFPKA
# Method in brief: (§1)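 First, 2.0 µM protein in 50 mM Tris-HCl (pH 7.4) was titrated with 1-NPN to obtain K1-NPN. Then odorants (2–20 µM final) competed against 2.0 µM 1-NPN, with fluorescence (ex 337 nm) recorded after 2 min. Ki was computed from IC50 via Ki = IC50/(1 + [1-NPN]/K1-NPN).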
# SfurOBP11 = SfurOBP11 (Sogatella furcifera, UniProt V5T6E3); assay: biochemical; format: binding
# Chain of SfurOBP11 (V5T6E3 entry or part of it): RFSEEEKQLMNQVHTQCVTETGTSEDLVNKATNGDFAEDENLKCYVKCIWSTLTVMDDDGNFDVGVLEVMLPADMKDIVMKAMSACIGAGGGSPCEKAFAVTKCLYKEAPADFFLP
# Method in brief: as §1
# SfurOBP2 = SfurOBP2 (Sogatella furcifera, UniProt V5T759); assay: biochemical; format: binding
# Chain of SfurOBP2 (V5T759 entry or part of it): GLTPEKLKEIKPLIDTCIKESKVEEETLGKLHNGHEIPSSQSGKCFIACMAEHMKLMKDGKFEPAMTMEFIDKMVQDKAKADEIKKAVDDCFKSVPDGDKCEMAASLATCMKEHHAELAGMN
# Method in brief: as §1
# SfurOBP3 = SfurOBP3 (Sogatella furcifera, UniProt V5T818); assay: biochemical; format: binding; conditions: for Fluorescence competitive binding assay, fluorescence intensity: OBP3, three replicate columns
# Chain of SfurOBP3 (V5T818 entry or part of it): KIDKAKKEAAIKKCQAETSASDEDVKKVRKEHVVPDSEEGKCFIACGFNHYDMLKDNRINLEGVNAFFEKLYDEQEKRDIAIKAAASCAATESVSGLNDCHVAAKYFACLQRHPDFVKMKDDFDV
# Method in brief: as §1
# S. furcifera adults = assay: Y-tube olfactometer behavioral trials; format: in vivo, Sogatella furcifera; conditions: odorant 50 µL/L vs hexane; adults
# Method in brief: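 Single S. furcifera adults (2 days post-emergence, starved 0.5 h) chose between odorant (100 µL of 50 µL/L on filter paper) and hexane control in a glass Y-tube, charcoal-filtered humidified air 300 mL/min per arm, 25 ± 1 °C, 50% RH. Choice scored if insect passed half an arm and stayed >1 min within 10 min; 45 insects per compound, chi-squared test.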
smiles,measurement,setting,value
C=C1CC/C=C(\C)CC[C@@H]2[C@@H]1CC2(C)C [β-caryophyllene],IC50,SfurOBP1,> 20 µM
same,"Fluorescence competitive binding assay, fluorescence intensity",SfurOBP1; ligand concentration 2 (μM),5117 and 5425 and 5286
same,"Fluorescence competitive binding assay, fluorescence intensity",SfurOBP1; ligand concentration 4 (μM),6363 and 5644 and 6004
same,"Fluorescence competitive binding assay, fluorescence intensity",SfurOBP1; ligand concentration 6 (μM),6522 and 6380 and 7207
same,"Fluorescence competitive binding assay, fluorescence intensity",SfurOBP1; ligand concentration 8 (μM),6475 and 7284 and 8411
same,"Fluorescence competitive binding assay, fluorescence intensity",SfurOBP1; ligand concentration 10 (μM),6788 and 8986 and 9051
same,"Fluorescence competitive binding assay, fluorescence intensity",SfurOBP1; ligand concentration 12 (μM),7963 and 9385 and 12364
same,"Fluorescence competitive binding assay, fluorescence intensity",SfurOBP1; ligand concentration 14 (μM),10459 and 9678 and 17343
same,"Fluorescence competitive binding assay, fluorescence intensity",SfurOBP1; ligand concentration 16 (μM),9671 and 11754 and 9907
same,"Fluorescence competitive binding assay, fluorescence intensity",SfurOBP1; ligand concentration 18 (μM),16605 and 15288 and 16195
same,"Fluorescence competitive binding assay, fluorescence intensity",SfurOBP1; ligand concentration 20 (μM),15809 and 13061 and 12977
same,IC50,SfurOBP11,> 20 µM
same,"Fluorescence intensity, fluorescence competitive binding assay, OBP11","SfurOBP11; ligand concentration 2, replicate 1",23970
same,"Fluorescence intensity, fluorescence competitive binding assay, OBP11","SfurOBP11; ligand concentration 2, replicate 2",23335
same,"Fluorescence intensity, fluorescence competitive binding assay, OBP11","SfurOBP11; ligand concentration 2, replicate 3",21938
same,"Fluorescence intensity, fluorescence competitive binding assay, OBP11","SfurOBP11; ligand concentration 4, replicate 1",23122
same,"Fluorescence intensity, fluorescence competitive binding assay, OBP11","SfurOBP11; ligand concentration 4, replicate 2",24566
same,"Fluorescence intensity, fluorescence competitive binding assay, OBP11","SfurOBP11; ligand concentration 4, replicate 3",25482
same,"Fluorescence intensity, fluorescence competitive binding assay, OBP11","SfurOBP11; ligand concentration 6, replicate 1",23526
same,"Fluorescence intensity, fluorescence competitive binding assay, OBP11","SfurOBP11; ligand concentration 6, replicate 2",25770
same,"Fluorescence intensity, fluorescence competitive binding assay, OBP11","SfurOBP11; ligand concentration 6, replicate 3",26267
same,"Fluorescence intensity, fluorescence competitive binding assay, OBP11","SfurOBP11; ligand concentration 8, replicate 1",21931
same,"Fluorescence intensity, fluorescence competitive binding assay, OBP11","SfurOBP11; ligand concentration 8, replicate 2",24474
same,"Fluorescence intensity, fluorescence competitive binding assay, OBP11","SfurOBP11; ligand concentration 8, replicate 3",27203
same,"Fluorescence intensity, fluorescence competitive binding assay, OBP11","SfurOBP11; ligand concentration 10, replicate 1",23853
same,"Fluorescence intensity, fluorescence competitive binding assay, OBP11","SfurOBP11; ligand concentration 10, replicate 2",25460
same,"Fluorescence intensity, fluorescence competitive binding assay, OBP11","SfurOBP11; ligand concentration 10, replicate 3",25443
same,"Fluorescence intensity, fluorescence competitive binding assay, OBP11","SfurOBP11; ligand concentration 12, replicate 1",23639
same,"Fluorescence intensity, fluorescence competitive binding assay, OBP11","SfurOBP11; ligand concentration 12, replicate 2",23490
same,"Fluorescence intensity, fluorescence competitive binding assay, OBP11","SfurOBP11; ligand concentration 12, replicate 3",23358
same,"Fluorescence intensity, fluorescence competitive binding assay, OBP11","SfurOBP11; ligand concentration 14, replicate 1",23808
same,"Fluorescence intensity, fluorescence competitive binding assay, OBP11","SfurOBP11; ligand concentration 14, replicate 2",26534
same,"Fluorescence intensity, fluorescence competitive binding assay, OBP11","SfurOBP11; ligand concentration 14, replicate 3",25924
same,"Fluorescence intensity, fluorescence competitive binding assay, OBP11","SfurOBP11; ligand concentration 16, replicate 1",22662
same,"Fluorescence intensity, fluorescence competitive binding assay, OBP11","SfurOBP11; ligand concentration 16, replicate 2",23024
same,"Fluorescence intensity, fluorescence competitive binding assay, OBP11","SfurOBP11; ligand concentration 16, replicate 3",23415
same,"Fluorescence intensity, fluorescence competitive binding assay, OBP11","SfurOBP11; ligand concentration 18, replicate 1",30250
same,"Fluorescence intensity, fluorescence competitive binding assay, OBP11","SfurOBP11; ligand concentration 18, replicate 2",30294
same,"Fluorescence intensity, fluorescence competitive binding assay, OBP11","SfurOBP11; ligand concentration 18, replicate 3",30235
same,"Fluorescence intensity, fluorescence competitive binding assay, OBP11","SfurOBP11; ligand concentration 20, replicate 1",30296
same,"Fluorescence intensity, fluorescence competitive binding assay, OBP11","SfurOBP11; ligand concentration 20, replicate 2",30444
same,"Fluorescence intensity, fluorescence competitive binding assay, OBP11","SfurOBP11; ligand concentration 20, replicate 3",30224
same,IC50,SfurOBP2,2.93 µM
same,"Fluorescence competitive binding assay, OBP2 (raw fluorescence reading)","SfurOBP2; ligand concentration 2 (unit not given), replicate column 1 of 3",11458
same,"Fluorescence competitive binding assay, OBP2 (raw fluorescence reading)","SfurOBP2; ligand concentration 2 (unit not given), replicate column 2 of 3",11327
same,"Fluorescence competitive binding assay, OBP2 (raw fluorescence reading)","SfurOBP2; ligand concentration 2 (unit not given), replicate column 3 of 3",11281
same,"Fluorescence competitive binding assay, OBP2 (raw fluorescence reading)","SfurOBP2; ligand concentration 4 (unit not given), replicate column 1 of 3",12040
same,"Fluorescence competitive binding assay, OBP2 (raw fluorescence reading)","SfurOBP2; ligand concentration 4 (unit not given), replicate column 2 of 3",12315
same,"Fluorescence competitive binding assay, OBP2 (raw fluorescence reading)","SfurOBP2; ligand concentration 4 (unit not given), replicate column 3 of 3",12582
same,"Fluorescence competitive binding assay, OBP2 (raw fluorescence reading)","SfurOBP2; ligand concentration 6 (unit not given), replicate column 1 of 3",13825
same,"Fluorescence competitive binding assay, OBP2 (raw fluorescence reading)","SfurOBP2; ligand concentration 6 (unit not given), replicate column 2 of 3",12794
same,"Fluorescence competitive binding assay, OBP2 (raw fluorescence reading)","SfurOBP2; ligand concentration 6 (unit not given), replicate column 3 of 3",13738
same,"Fluorescence competitive binding assay, OBP2 (raw fluorescence reading)","SfurOBP2; ligand concentration 8 (unit not given), replicate column 1 of 3",13150
same,"Fluorescence competitive binding assay, OBP2 (raw fluorescence reading)","SfurOBP2; ligand concentration 8 (unit not given), replicate column 2 of 3",13647
same,"Fluorescence competitive binding assay, OBP2 (raw fluorescence reading)","SfurOBP2; ligand concentration 8 (unit not given), replicate column 3 of 3",14723
same,"Fluorescence competitive binding assay, OBP2 (raw fluorescence reading)","SfurOBP2; ligand concentration 10 (unit not given), replicate column 1 of 3",16274
same,"Fluorescence competitive binding assay, OBP2 (raw fluorescence reading)","SfurOBP2; ligand concentration 10 (unit not given), replicate column 2 of 3",13413
same,"Fluorescence competitive binding assay, OBP2 (raw fluorescence reading)","SfurOBP2; ligand concentration 10 (unit not given), replicate column 3 of 3",15514
same,"Fluorescence competitive binding assay, OBP2 (raw fluorescence reading)","SfurOBP2; ligand concentration 12 (unit not given), replicate column 1 of 3",16497
same,"Fluorescence competitive binding assay, OBP2 (raw fluorescence reading)","SfurOBP2; ligand concentration 12 (unit not given), replicate column 2 of 3",15342
same,"Fluorescence competitive binding assay, OBP2 (raw fluorescence reading)","SfurOBP2; ligand concentration 12 (unit not given), replicate column 3 of 3",16204
same,"Fluorescence competitive binding assay, OBP2 (raw fluorescence reading)","SfurOBP2; ligand concentration 14 (unit not given), replicate column 1 of 3",16950
same,"Fluorescence competitive binding assay, OBP2 (raw fluorescence reading)","SfurOBP2; ligand concentration 14 (unit not given), replicate column 2 of 3",15785
same,"Fluorescence competitive binding assay, OBP2 (raw fluorescence reading)","SfurOBP2; ligand concentration 14 (unit not given), replicate column 3 of 3",16267
same,"Fluorescence competitive binding assay, OBP2 (raw fluorescence reading)","SfurOBP2; ligand concentration 16 (unit not given), replicate column 1 of 3",16569
same,"Fluorescence competitive binding assay, OBP2 (raw fluorescence reading)","SfurOBP2; ligand concentration 16 (unit not given), replicate column 2 of 3",16590
same,"Fluorescence competitive binding assay, OBP2 (raw fluorescence reading)","SfurOBP2; ligand concentration 16 (unit not given), replicate column 3 of 3",16267
same,"Fluorescence competitive binding assay, OBP2 (raw fluorescence reading)","SfurOBP2; ligand concentration 18 (unit not given), replicate column 1 of 3",20111
same,"Fluorescence competitive binding assay, OBP2 (raw fluorescence reading)","SfurOBP2; ligand concentration 18 (unit not given), replicate column 2 of 3",21295
same,"Fluorescence competitive binding assay, OBP2 (raw fluorescence reading)","SfurOBP2; ligand concentration 18 (unit not given), replicate column 3 of 3",20566
same,"Fluorescence competitive binding assay, OBP2 (raw fluorescence reading)","SfurOBP2; ligand concentration 20 (unit not given), replicate column 1 of 3",21451
same,"Fluorescence competitive binding assay, OBP2 (raw fluorescence reading)","SfurOBP2; ligand concentration 20 (unit not given), replicate column 2 of 3",21222
same,"Fluorescence competitive binding assay, OBP2 (raw fluorescence reading)","SfurOBP2; ligand concentration 20 (unit not given), replicate column 3 of 3",20042
same,IC50,SfurOBP3,> 20 µM
same,"Fluorescence competitive binding assay, fluorescence intensity",SfurOBP3; ligand concentration 2,59910 and 62614 and 72673
same,"Fluorescence competitive binding assay, fluorescence intensity",SfurOBP3; ligand concentration 4,64089 and 65130 and 67441
same,"Fluorescence competitive binding assay, fluorescence intensity",SfurOBP3; ligand concentration 6,62365 and 65722 and 64412
same,"Fluorescence competitive binding assay, fluorescence intensity",SfurOBP3; ligand concentration 8,61822 and 63261 and 63413
same,"Fluorescence competitive binding assay, fluorescence intensity",SfurOBP3; ligand concentration 10,59908 and 63429 and 67892
same,"Fluorescence competitive binding assay, fluorescence intensity",SfurOBP3; ligand concentration 12,56993 and 56771 and 64941
same,"Fluorescence competitive binding assay, fluorescence intensity",SfurOBP3; ligand concentration 14,61557 and 60060 and 62301
same,"Fluorescence competitive binding assay, fluorescence intensity",SfurOBP3; ligand concentration 16,39308 and 53990 and 51354
same,"Fluorescence competitive binding assay, fluorescence intensity",SfurOBP3; ligand concentration 18,76113 and 82456 and 70640
same,"Fluorescence competitive binding assay, fluorescence intensity",SfurOBP3; ligand concentration 20,72444 and 66812 and 61866
same,number of insects choosing hexane arm,S. furcifera adults,15
same,number of insects choosing volatilies arm,S. furcifera adults,16
same,number of insects failed (no choice),S. furcifera adults,9
